Earlier results in patent US10028967B2, “Medicament” (Symrise AG, priority 2014, dated 2018).

Details: oral phenylephrine, compared to intravenous pseudoephedrine; reduced and variable

For `CNC[C@H](O)c1cccc(O)c1` [Phenylephrine], the bioavailability is given as “up to 38%”.
